In ChEMBL document CHEMBL1156994, “Chemopreventive activities of etodolac and oxyphenbutazone against mouse skin carcinogenesis” (Bioorg Med Chem Lett, 2010):

Key:
Mus musculus [1] = assay: Inhibition of DMBA-induced/TPA-promoted skin carcinogenesis in ICR mouse assessed as reduction in tumor burden at 0.0025% topically applied qd treated one week before DMBA-TPA challenge after 20 weeks relative to control; format: functional
Mus musculus [2] = assay: Toxicity in ICR mouse at 0.0025%, po; format: organism-based; details: in vivo
Mus musculus [3] = assay: Inhibition of peroxynitrite-induced/TPA promoted skin carcinogenesis in HOS-HR-1 mouse assessed as decrease in tumor incidence at 0.0025%, po treated one week before peroxynitrite-TPA challenge after 20 weeks relative to control; format: functional
Mus musculus [4] = assay: Inhibition of peroxynitrite-induced/TPA promoted skin carcinogenesis in HOS-HR-1 mouse assessed as decrease in tumor burdon at 0.0025%, po treated one week before peroxynitrite-TPA challenge after 20 weeks relative to control; format: functional
Mus musculus [5] = assay: Toxicity in HOS-HR-1 mouse at 0.0025%, po; format: organism-based; details: in vivo
Mus musculus [6] = assay: Inhibition of peroxynitrite-induced/TPA promoted skin carcinogenesis in HOS-HR-1 mouse assessed as increase in tumor latency period at 0.0025%, po treated one week before peroxynitrite-TPA challenge after 20 weeks relative to control; format: functional

SMILES | inhibition (INH) (Mus musculus [1]) [%] | Activity (Mus musculus [2]) | inhibition (INH) (Mus musculus [3]) [%] | inhibition (INH) (Mus musculus [4]) [%] | Activity (Mus musculus [5]) | inhibition (INH) (Mus musculus [6]) [%]
CCc1cccc2c3c([nH]c12)C(CC)(CC(=O)O)OCC3 (stereo unspecified) [ETODOLAC] | 40 | Non-toxic |  |  |  | 
CCCCC1C(=O)N(c2ccccc2)N(c2ccc(O)cc2)C1=O (stereo unspecified) [OXYPHENBUTAZONE ANHYDROUS] |  |  | >20 | >50 | Non-toxic | 29
